# Reference: ChEMBL document CHEMBL1201862, “PubChem BioAssay data set” (2004)
# Activity calls are given as the source filed them.
# Columns and labels:
# Vero = assay: mammalian cell viability reduction – secondary assay, cytotoxicity control for West Nile virus antiviral project, dose response (AID 1650); assay type: functional; details: Chlorocebus sabaeus
# [1] = Trypanosoma cruzi growth suppression in host cells – NIH3T3 host cells, beta-gal luminescence, confirmation (AID 2044); assay type: functional, cell-based;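 further: intracellular parasites grown in NIH/3T3 mouse fibroblasts as host cells; luminescent beta-galactosidase reporter signal from transgenic T. cruzi replicating inside host cells; inhibitors lower the luminescence signal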
# [2] = NIH3T3 cell viability loss – ATP luminescence, mouse fibroblasts, counter-screen, dose response (AID 2010); assay type: functional, cell-based;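 further: cells exposed to compound for about 90 hours before reading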
# [3] = target: DNA damage-inducible transcript 3 protein (Mus musculus, UniProt P35639); assay type: functional, Cricetulus griseus
# Chain of DNA damage-inducible transcript 3 protein (P35639 whole entry): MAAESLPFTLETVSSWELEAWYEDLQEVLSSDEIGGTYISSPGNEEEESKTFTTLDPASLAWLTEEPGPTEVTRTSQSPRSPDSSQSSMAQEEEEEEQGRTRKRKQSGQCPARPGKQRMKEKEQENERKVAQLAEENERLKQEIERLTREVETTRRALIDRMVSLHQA
# Cysteine protease ATG4B = target: T1, Cysteine protease ATG4B (Homo sapiens, UniProt Q9Y4P1); assay type: functional;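 further: Fluorescence-based dose-response confirmation assay measuring inhibition of ATG4B activity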
# T1 sequence (Q9Y4P1 whole entry): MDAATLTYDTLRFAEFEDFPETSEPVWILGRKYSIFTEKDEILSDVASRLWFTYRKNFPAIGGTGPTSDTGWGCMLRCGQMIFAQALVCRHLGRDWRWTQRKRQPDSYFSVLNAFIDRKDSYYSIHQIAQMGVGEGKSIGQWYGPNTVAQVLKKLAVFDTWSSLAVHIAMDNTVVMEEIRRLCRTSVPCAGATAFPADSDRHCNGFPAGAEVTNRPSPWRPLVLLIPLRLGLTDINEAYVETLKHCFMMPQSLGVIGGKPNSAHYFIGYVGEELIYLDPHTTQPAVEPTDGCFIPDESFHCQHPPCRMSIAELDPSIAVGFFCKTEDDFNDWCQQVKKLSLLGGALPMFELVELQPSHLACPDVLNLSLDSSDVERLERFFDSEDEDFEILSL
# X-box-binding protein 1 = X-box-binding protein 1 (Homo sapiens, UniProt P17861); assay type: functional, Cricetulus griseus;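 further: confirmatory dose-response counter-screen serving a CHOP assay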
# Chain of X-box-binding protein 1 (P17861 whole entry): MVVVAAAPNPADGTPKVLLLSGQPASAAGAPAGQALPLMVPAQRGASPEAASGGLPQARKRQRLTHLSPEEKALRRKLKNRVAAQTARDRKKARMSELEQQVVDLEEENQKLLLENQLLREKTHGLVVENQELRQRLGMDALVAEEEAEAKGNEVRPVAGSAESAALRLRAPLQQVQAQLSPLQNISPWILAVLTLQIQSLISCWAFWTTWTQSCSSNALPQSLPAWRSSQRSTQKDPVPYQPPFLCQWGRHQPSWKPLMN
# Phospholipase A2 = Phospholipase A2 (Homo sapiens, UniProt P04054); assay type: functional;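 further: confirmatory dose-response counterscreen on phospholipase A2, testing hits that came from an ultra-high-throughput screen for ATG4B inhibitors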
# Chain of Phospholipase A2 (P04054 whole entry): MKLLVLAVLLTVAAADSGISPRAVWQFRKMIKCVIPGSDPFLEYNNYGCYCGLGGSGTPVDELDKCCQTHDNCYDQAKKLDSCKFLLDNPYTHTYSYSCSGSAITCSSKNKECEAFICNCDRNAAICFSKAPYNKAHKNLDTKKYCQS
# [4] = target: Delta-type opioid receptor (Homo sapiens, UniProt P41143); assay: Counterscreen for agonists of heterodimerization of the mu 1 (OPRM1) and delta 1 (OPRD1) opioid receptors: Luminescence-based cell-based high throughput dose response assay to identify agonists of OPRD1 homodimerization. [Related pubchem assays (depositor defined):AID504326, AID504355, AID504692, AID504904, AID504905]; assay type: functional
# Chain of Delta-type opioid receptor (P41143 whole entry): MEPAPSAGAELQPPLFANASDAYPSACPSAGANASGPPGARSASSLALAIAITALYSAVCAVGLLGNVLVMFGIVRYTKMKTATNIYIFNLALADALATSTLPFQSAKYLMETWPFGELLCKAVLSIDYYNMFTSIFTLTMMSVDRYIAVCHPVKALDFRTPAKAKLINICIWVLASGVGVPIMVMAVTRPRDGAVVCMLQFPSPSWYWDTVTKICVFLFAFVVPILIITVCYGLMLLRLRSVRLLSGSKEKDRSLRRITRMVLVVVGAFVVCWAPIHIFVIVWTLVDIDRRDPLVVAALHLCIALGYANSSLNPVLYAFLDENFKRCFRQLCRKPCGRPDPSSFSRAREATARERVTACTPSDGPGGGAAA
# Mu-type opioid receptor = Mu-type opioid receptor (Homo sapiens, UniProt P35372); assay: Counterscreen for agonists of heterodimerization of the mu 1 (OPRM1) and delta 1 (OPRD1) opioid receptors: Luminescence-based cell-based high throughput dose response assay to identify agonists of OPRM1 homodimerization.; assay type: functional;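 further: U2OS cells expressing OPRM1 and beta-arrestin as split beta-galactosidase partners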
# Chain of Mu-type opioid receptor (P35372 whole entry): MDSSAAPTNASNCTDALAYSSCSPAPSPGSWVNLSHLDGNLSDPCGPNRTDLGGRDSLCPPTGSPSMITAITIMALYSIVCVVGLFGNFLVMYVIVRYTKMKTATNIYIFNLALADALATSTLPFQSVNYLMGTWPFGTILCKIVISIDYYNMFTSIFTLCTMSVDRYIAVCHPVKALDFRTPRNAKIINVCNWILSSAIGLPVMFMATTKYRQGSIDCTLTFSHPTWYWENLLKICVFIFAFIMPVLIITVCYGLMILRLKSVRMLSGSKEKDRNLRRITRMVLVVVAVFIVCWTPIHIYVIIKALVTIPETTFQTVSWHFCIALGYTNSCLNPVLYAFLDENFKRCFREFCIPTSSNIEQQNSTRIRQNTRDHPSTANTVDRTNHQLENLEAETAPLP
# [5] = target: 5-hydroxytryptamine receptor 5A (Homo sapiens, UniProt P47898); assay: Counterscreen for agonists of OPRM1-OPRD1 heterodimerization: luminescence-based cell-based high throughput dose response assay to identify agonists of 5-hydroxytryptamine (serotonin) 5A receptor (HTR5A). [Related pubchem assays (depositor defined):AID504326, AID504355, AID504692, AID504904, AID504905]; assay type: functional
# Chain of 5-hydroxytryptamine receptor 5A (P47898 whole entry): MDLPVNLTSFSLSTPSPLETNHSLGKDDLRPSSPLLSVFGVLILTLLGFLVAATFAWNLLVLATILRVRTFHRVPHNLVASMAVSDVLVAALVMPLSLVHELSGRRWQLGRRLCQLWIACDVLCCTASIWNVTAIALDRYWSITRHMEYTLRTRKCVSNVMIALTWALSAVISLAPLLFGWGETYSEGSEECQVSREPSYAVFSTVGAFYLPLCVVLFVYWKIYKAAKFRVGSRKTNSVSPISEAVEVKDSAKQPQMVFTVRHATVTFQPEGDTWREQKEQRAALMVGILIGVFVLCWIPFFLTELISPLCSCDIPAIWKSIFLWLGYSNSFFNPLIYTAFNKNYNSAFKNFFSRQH
# [6] = activation of miR-122 Renilla sensor silencing – cell-based, Huh7 psiCHECK-miR122, Renilla luciferase, cherry-picked, dose response (AID 651956); assay type: functional;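 further: huh7 hepatoma cells stably carrying a psiCHECK-2 miR-122 sensor plasmid; renilla luciferase signal reporting endogenous miR-122 activity after 48 h compound exposure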
# [7] = general mammalian cell viability loss – inhibitor set, cherry-pick, set 2, cytotoxicity control for miR-122 modulator project, dose response (AID 720697); assay type: functional, cell-based
# [8] = general mammalian cell viability loss – activator set, cherry-pick, cytotoxicity control for miR-122 modulator project, dose response (AID 720690); assay type: functional, cell-based;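 further: HEK293T human cells scored for general mammalian cytotoxicity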
# Escherichia coli = assay: microbe, parasite or virus in culture
# [9] = target: Mitogen-activated protein kinase 10 (Homo sapiens, UniProt P53779); assay: Dose response biochemical screening assay for inhibitors of c-Jun N-Terminal Kinase 3 (JNK3). [Related pubchem assays: 746 ]
# Chain of Mitogen-activated protein kinase 10 (P53779 whole entry): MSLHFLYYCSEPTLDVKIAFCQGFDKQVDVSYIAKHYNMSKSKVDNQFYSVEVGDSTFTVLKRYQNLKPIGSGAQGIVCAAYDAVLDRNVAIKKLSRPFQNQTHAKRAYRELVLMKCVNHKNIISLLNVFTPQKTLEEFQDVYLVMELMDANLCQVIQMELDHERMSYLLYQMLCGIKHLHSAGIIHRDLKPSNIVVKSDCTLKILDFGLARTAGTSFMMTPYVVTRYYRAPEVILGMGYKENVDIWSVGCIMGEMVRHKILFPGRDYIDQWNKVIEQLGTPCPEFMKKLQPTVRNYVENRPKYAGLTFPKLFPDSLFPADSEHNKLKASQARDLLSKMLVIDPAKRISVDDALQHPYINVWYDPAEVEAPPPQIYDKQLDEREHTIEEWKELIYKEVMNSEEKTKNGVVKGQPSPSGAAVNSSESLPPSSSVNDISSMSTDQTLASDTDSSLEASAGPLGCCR
# A-375 [10] = assay: MITF: Counter assay: A375 proliferation Measured in Cell-Based System Using Plate Reader - 2084-03_Inhibitor_Dose_DryPowder_Activity. [Related pubchem assays (depositor defined):AID488944]; assay type: functional; details: Homo sapiens
# A-375 [11] = assay: proliferation inhibition in MITF-low A375 cells – cell-based, cherry-pick samples, set 2, counter-screen for MITF modulator project, dose response (AID 540335); assay type: functional; details: Homo sapiens
# [12] = microbe, parasite or virus in culture; assay type: functional; details: Mycobacterium tuberculosis
# Jurkat = assay: blockers of NF-kB activation in T cells – Jurkat, luciferase reporter, luminescence, B- and T-cell, dose response (AID 489004); assay type: functional, cell-based; details: Homo sapiens;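 further: NF-kB luciferase reporter Jurkat cells stimulated with PMA plus ionomycin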
# [13] = HEK-293T viability loss, compound-treated – cell-based, uHTS hits, cytotoxicity control for B/T-cell NF-kB inhibitor project, dose response (AID 489019); assay type: functional;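 further: IC50 reflects cytotoxicity as loss of cell viability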
# [14] = target: T2, Replicative DNA helicase DnaB (Mycobacterium tuberculosis, UniProt P9WMR3); assay: DnaB intein splicing inhibitors, dose response, biochemical, cell-free fluorescence (AID 449749); assay type: functional
# T2 sequence (P9WMR3 whole entry): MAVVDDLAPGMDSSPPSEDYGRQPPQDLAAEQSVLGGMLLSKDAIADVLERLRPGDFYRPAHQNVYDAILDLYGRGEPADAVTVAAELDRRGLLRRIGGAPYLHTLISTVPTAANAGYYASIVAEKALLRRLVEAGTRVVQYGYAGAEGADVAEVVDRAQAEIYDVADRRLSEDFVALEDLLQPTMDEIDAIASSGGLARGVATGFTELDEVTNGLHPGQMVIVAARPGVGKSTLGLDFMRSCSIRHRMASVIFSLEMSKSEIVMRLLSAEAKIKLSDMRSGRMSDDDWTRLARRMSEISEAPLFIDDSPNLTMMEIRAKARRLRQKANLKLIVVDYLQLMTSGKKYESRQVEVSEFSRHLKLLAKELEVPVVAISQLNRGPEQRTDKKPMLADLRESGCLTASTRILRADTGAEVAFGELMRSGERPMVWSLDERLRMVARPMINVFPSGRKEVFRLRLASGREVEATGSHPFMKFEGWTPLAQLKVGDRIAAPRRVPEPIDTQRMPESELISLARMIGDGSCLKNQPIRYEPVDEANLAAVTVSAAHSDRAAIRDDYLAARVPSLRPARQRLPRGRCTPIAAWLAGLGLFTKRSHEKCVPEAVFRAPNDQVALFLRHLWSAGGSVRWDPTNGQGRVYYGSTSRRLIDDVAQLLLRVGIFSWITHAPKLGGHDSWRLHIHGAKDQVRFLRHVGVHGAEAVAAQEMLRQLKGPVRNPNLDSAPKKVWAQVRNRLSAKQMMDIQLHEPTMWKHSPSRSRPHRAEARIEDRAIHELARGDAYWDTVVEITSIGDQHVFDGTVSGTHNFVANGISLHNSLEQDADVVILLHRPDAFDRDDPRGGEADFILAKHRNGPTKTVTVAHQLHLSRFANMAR
# Protein RecA = target: T3, Protein RecA (Mycobacterium tuberculosis, UniProt P9WHJ3); assay: Fluorescence Cell-Free Homogeneous Dose Retest to Identify Inhibitors of RecA-Intein Splicing Activity. [Related pubchem assays (depositor defined):AID2097, AID2223, AID489010, AID492950]; assay type: functional
# T3 sequence (P9WHJ3 whole entry): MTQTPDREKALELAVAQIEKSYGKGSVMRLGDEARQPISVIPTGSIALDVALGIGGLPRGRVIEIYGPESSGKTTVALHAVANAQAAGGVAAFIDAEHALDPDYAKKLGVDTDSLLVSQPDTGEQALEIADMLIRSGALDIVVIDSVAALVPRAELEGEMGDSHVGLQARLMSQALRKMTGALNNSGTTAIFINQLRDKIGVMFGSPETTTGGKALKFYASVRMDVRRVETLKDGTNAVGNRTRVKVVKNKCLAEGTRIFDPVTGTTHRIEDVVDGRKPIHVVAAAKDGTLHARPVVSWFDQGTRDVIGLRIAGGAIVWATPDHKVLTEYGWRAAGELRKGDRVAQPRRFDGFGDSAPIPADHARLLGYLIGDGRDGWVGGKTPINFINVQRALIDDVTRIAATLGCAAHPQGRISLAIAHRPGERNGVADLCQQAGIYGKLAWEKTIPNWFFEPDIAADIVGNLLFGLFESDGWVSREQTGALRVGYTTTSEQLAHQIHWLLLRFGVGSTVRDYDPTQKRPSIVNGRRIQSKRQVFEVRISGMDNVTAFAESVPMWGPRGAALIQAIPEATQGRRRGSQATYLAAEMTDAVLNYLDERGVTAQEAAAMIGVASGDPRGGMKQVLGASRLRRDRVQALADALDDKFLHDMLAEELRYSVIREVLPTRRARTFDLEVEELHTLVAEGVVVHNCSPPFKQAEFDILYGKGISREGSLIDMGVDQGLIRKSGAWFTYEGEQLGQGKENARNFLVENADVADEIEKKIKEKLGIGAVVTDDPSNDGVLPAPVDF
# INS1 = assay: INS-1E survival protection against cytokine death – cell-based, luminescence, retest, dose response (AID 449756); assay type: functional; details: Rattus norvegicus;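 further: cell death triggered by IL-1 beta plus TNF-alpha plus IFN-gamma mixture; protective hits raise ATP signal compared with cytokine alone wells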
# [15] = target: T4, Sentrin-specific protease 8 (Homo sapiens, UniProt Q96LD8); assay type: functional
# T4 sequence (Q96LD8 whole entry): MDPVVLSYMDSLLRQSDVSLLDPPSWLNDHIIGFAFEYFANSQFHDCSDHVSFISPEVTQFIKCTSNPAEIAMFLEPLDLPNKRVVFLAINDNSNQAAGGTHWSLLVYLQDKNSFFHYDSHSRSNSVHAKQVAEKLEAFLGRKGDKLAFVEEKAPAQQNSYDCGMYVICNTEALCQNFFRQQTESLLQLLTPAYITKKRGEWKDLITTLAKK
# [16] = target: T4, Sentrin-specific protease 8; assay type: functional; remark: listed apart in the source
# [17] = target: DNA repair protein RAD52 homolog (Homo sapiens, UniProt P43351); assay type: functional, biochemical
# Chain of DNA repair protein RAD52 homolog (P43351 whole entry): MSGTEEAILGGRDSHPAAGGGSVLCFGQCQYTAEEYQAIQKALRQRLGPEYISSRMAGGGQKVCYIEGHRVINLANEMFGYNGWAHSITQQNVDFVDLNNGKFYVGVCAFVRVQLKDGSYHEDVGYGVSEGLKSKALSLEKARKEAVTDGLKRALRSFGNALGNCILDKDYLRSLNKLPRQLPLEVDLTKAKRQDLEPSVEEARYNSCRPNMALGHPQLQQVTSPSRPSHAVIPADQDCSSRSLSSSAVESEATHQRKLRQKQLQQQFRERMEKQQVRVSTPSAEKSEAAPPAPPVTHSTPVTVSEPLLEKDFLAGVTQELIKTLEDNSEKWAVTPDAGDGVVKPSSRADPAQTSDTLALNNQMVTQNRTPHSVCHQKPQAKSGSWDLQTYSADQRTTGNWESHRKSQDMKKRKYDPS
# Caspase-6 = target: T5, Caspase-6 (Homo sapiens, UniProt P55212); assay: inhibition of CASP6 peptide cleavage – biochemical, VEID-R110 fluorescence, cherry-pick, dose response (AID 720632)
# T5 sequence (P55212 whole entry): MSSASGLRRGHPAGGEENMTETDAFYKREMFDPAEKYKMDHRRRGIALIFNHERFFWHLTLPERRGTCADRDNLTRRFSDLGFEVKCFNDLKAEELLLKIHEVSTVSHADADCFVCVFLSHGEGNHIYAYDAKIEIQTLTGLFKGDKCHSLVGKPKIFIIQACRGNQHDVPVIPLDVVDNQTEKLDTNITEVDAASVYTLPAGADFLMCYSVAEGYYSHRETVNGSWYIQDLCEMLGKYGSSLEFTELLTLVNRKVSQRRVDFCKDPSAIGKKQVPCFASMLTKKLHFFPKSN
# Caspase-9 = target: T6, Caspase-9 (Homo sapiens, UniProt P55211); assay: inhibitors of purified CASP9 protease – biochemical, fluorescence, plate reader, cherry-picked samples, selectivity assay for caspase-6 inhibitor project, dose response (AID 743293)
# T6 sequence (P55211 whole entry): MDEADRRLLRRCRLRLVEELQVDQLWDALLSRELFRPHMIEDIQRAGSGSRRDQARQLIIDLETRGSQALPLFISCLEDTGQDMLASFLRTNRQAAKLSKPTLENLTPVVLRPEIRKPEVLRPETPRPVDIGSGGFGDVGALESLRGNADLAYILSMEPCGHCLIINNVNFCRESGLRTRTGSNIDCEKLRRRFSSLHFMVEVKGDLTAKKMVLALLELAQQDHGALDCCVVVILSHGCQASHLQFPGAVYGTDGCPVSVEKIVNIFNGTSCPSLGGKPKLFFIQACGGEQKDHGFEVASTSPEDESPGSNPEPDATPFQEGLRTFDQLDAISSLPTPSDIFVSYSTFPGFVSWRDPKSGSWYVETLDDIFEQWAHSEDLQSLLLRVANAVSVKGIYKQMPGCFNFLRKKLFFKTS
# Caspase-7 = target: T7, Caspase-7 (Homo sapiens, UniProt P55210); assay: caspase-7 enzyme inhibition, selectivity check – biochemical, DEVD-R110 fluorescence, cherry-pick, selectivity assay for caspase-6 inhibitor project, dose response (AID 743295); assay type: functional
# T7 sequence (P55210 whole entry): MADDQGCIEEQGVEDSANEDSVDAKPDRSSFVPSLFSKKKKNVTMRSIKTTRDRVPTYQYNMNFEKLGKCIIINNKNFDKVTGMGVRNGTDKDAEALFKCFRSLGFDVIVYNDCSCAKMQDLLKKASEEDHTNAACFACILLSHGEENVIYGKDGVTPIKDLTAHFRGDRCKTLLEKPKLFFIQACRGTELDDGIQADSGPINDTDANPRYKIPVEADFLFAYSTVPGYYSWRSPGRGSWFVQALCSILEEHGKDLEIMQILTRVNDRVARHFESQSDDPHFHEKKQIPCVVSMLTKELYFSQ
# Caspase-8 = Caspase-8 (Homo sapiens, UniProt Q14790); assay: inhibitors of purified CASP8 protease – biochemical, Z-IETD-R110 fluorescence, cherry-picked samples, selectivity assay for caspase-6 inhibitor project, dose response (AID 743294)
# Chain of Caspase-8 (Q14790 217-374 limits assumed): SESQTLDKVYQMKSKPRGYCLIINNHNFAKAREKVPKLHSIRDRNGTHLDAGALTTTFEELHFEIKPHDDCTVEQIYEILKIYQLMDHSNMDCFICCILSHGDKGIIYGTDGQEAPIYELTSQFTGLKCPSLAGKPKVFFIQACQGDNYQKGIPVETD
# Chain of Caspase-8 (Q14790 385-479 limits assumed): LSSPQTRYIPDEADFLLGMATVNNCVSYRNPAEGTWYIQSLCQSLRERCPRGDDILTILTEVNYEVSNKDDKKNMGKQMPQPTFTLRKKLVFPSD
smiles,measurement,setting,value
Clc1ccc2c(N/N=C/c3ccccc3Br)ccnc2c1,CC50,Vero,7.23 µM (active)
same,EC50,[1],1.02 µM (active)
same,EC50,[2],> 60 µM (not active)
same,Absolute IC50 (CHOP),[3],10 µM
same,IC50,Cysteine protease ATG4B,3.17 µM (active)
same,Absolute IC50 (XBP1),X-box-binding protein 1,10 µM
same,IC50,Phospholipase A2,1.75 µM (active)
same,EC50,[4],> 92.5 µM (inactive)
same,EC50,Mu-type opioid receptor,> 92.5 µM (inactive)
same,EC50,[5],> 92.5 µM (inactive)
same,AC50,[6],39.6 µM (active)
same,AC50,[7],7.49 µM (active)
same,AC50,[8],16 µM (active)
O=C(CN1CCCCC1)Nc1cc(Cl)ccc1Cl,AC50,Escherichia coli,144 µM (active)
Cc1ccc2nc(Cc3ccc(N)cc3)oc2c1,IC50,[9],49.9 µM (not active)
same,AC50,A-375 [10],> 35 µM (active)
same,AC50,A-375 [11],> 35 µM (active)
COc1cc(NC(C)CCCN)c2ncccc2c1 (stereo not drawn) [PRIMAQUINE PHOSPHATE],CC50,[12],> 40 µM (active)
same,IC50,Jurkat,38 µM (inactive)
same,IC50,[13],> 80 µM (inactive)
same,AC50,[14],9.98 µM (active)
same,EC50,Protein RecA,1.17 µM (active)
same,AC50,INS1,3.83 µM (active)
same,IC50,[15],0.987 µM (active)
same,IC50,[16],0.935 µM (active)
same,AC50,[17],5.55 µM (active)
same,AC50,Caspase-6,1.9 µM (active)
same,AC50,Caspase-9,> 70 µM (inactive)
same,AC50,Caspase-7,4.07 µM (active)
same,AC50,Caspase-8,57.9 µM (active)
CCOC(=O)C1(CC2CCCCO2)CCN(Cc2ccc(OC)cc2F)CC1 (stereo not drawn),EC50,[4],> 92.5 µM (inactive)
same,EC50,Mu-type opioid receptor,> 92.5 µM (inactive)
same,EC50,[5],> 92.5 µM (inactive)
